According to ChEMBL document CHEMBL5390203, “Identification of Obscurolide-Type Metabolites and Antifungal Metabolites from the Termite-Associated Streptomyces neopeptinius BYF101” (2023):
Values after ≈ are worked out from the molar mass of the structure shown. Active and inactive are the calls of the source. The calls are words filed in the database; no cut-off is given here.

What was measured:
Cryptococcus neoformans = assay: Antifungal activity against Cryptococcus neoformans H99 assessed as fungal growth inhibition incubated for 2 days by broth serial dilution method; assay type: functional; settings: H99, 48 h, time 2 day
Candida albicans = assay: Antifungal activity against Candida albicans SC5314 assessed as fungal growth inhibition incubated for 2 days by broth serial dilution method; assay type: functional; settings: for Activity: time 2.0 day

C[C@H](O)/C=C/[C@@H]1OC(=O)C[C@H]1Nc1ccc(C(=O)O)cc1
MIC (Cryptococcus neoformans): 100 µg/mL (≈ 343 µM)
Activity (Candida albicans): inactive

Cc1cc(O)cc2cc3c(c(O)c12)C(=O)CC[C@@H]3O
MIC (Cryptococcus neoformans): 50 µg/mL (≈ 194 µM)
Activity (Candida albicans): inactive

O=C1[C@H](Cc2ccccc2)NC(=O)[C@]2(O)CCCN12
MIC (Cryptococcus neoformans): 50 µg/mL (≈ 192 µM)
Activity (Candida albicans): inactive

CC(=O)CC[C@@H]1OC(=O)C[C@H]1Nc1ccc(C(=O)O)cc1
MIC (Cryptococcus neoformans): 50 µg/mL (≈ 172 µM)
MIC (Candida albicans; SC5314, 48 h, time 2 day): > 100 µg/mL

CC(=O)Nc1ccccc1O
MIC (Cryptococcus neoformans): 50 µg/mL (≈ 331 µM)
Activity (Candida albicans): inactive

O=c1[nH]c2ccccc2o1 [BENZOXAZOLINONE]
MIC (Cryptococcus neoformans): 25 µg/mL (≈ 185 µM)
Activity (Candida albicans): inactive

C/C=C/[C@H](O)[C@@H]1OC(=O)C[C@H]1Nc1ccc(C(=O)O)cc1
MIC (Cryptococcus neoformans): 25 µg/mL (≈ 85.8 µM)
Activity (Candida albicans): inactive

CC(C)C[C@@H]1NC(=O)[C@@H]2C[C@@H](O)CN2C1=O
MIC (Cryptococcus neoformans): 25 µg/mL (≈ 110 µM)
Activity (Candida albicans): inactive

C[C@@H]1NC(=O)[C@H](Cc2ccccc2)NC1=O
MIC (Cryptococcus neoformans): 100 µg/mL (≈ 458 µM)
Activity (Candida albicans): inactive

CC(C)C[C@@H]1NC(=O)CNC1=O
MIC (Cryptococcus neoformans): 25 µg/mL (≈ 147 µM)
Activity (Candida albicans): inactive

OC(Cn1cncn1)(Cn1cncn1)c1ccc(F)cc1F [FLUCONAZOLE]
MIC (Cryptococcus neoformans): 4 µg/mL (≈ 13.1 µM)

C[C@]1(O)CC(=O)c2c(cc3cccc(O)c3c2O)C1
MIC (Cryptococcus neoformans): 50 µg/mL (≈ 194 µM)
Activity (Candida albicans): inactive

Cc1c(C(=O)O)c(O)cc2c1C(=O)c1c(O)cc(O)cc1C2=O
MIC (Cryptococcus neoformans): 100 µg/mL (≈ 318 µM)
Activity (Candida albicans): inactive

O=C1N[C@@H](Cc2ccccc2)C(=O)N2C[C@H](O)C[C@@H]12
MIC (Cryptococcus neoformans): 50 µg/mL (≈ 192 µM)
Activity (Candida albicans): inactive

CC(C)[C@@H]1NC(=O)[C@@H]2CCCN2C1=O
MIC (Cryptococcus neoformans): 100 µg/mL (≈ 510 µM)
Activity (Candida albicans): inactive

CC(=O)NCCc1c[nH]c2ccccc12 [NB-ACETYLTRYPTAMINE]
MIC (Cryptococcus neoformans): 200 µg/mL (≈ 989 µM)
Activity (Candida albicans): inactive

Cc1c(C(=O)O)c(O)cc2c1C(=O)c1c(O)cccc1C2=O
MIC (Cryptococcus neoformans): 100 µg/mL (≈ 335 µM)
Activity (Candida albicans): inactive

O=C(O)c1c[nH]c2ccccc12
MIC (Cryptococcus neoformans): 12 µg/mL (≈ 74.5 µM)
Activity (Candida albicans): inactive

CC(C)C[C@@H]1NC(=O)[C@H](C(C)C)NC1=O
MIC (Cryptococcus neoformans): 50 µg/mL (≈ 236 µM)
Activity (Candida albicans): inactive

CC(C)C[C@@H]1NC(=O)[C@@H]2CCCN2C1=O
MIC (Cryptococcus neoformans): 50 µg/mL (≈ 238 µM)
Activity (Candida albicans): inactive

O=C1CNC(=O)[C@H](Cc2ccccc2)N1
MIC (Cryptococcus neoformans): 50 µg/mL (≈ 245 µM)
Activity (Candida albicans): inactive
